The record followed here is US20210330683A1, “COMPOSITIONS AND METHODS FOR ENHANCED DELIVERY OF ANTIVIRAL AGENTS” (POVIVA CORP., priority 2020, published 2021).

Each structure is given as a SMILES string.

The series can be described thus: Plasma exposure (pharmacokinetics) of darunavir and efavirenz after oral administration of formulations. To be noted: for concentration at 1 h / concentration at 2 h: male, Sprague-Dawley, 10 mg/kg, average plasma concentration. Here is the method:
In this study, the exposure and distribution of darunavir and efavirenz were evaluated following oral administration in male Sprague-Dawley rats. Four cohorts of 10 rats each were used in this study. The first cohort involved darunavir using the disclosed formulations and the second cohort darunavir in a control formulation. The third cohort involved efavirenz using the disclosed formulations and the fourth cohort efavirenz in a control formulation.
Formulations were administered orally (PO) at 10 mg/kg of darunavir or efavirenz. Following dosing, blood, urine and fecal samples were collected up to 8-hour post dose (groups 1, 3, 5, and 7) or 24-hour post dose (groups 2, 4, 6, and 8). Brain tissue was collected at 8 hours or 24 hours, following the 8 hour or 24-hour urine and feces sample collection. Plasma, urine, feces, and brain tissue concentrations of the analytes were determined by LC-MS/MS. Plasma pharmacokinetic parameters were determined using WinNonlin (v8.0) software.
Plasma, urine, feces, and brain tissue samples were extracted and analyzed using the methods described as follows.
Analytical stock solutions (1.00 mg/mL of the free drug) were prepared in DMSO. Sample Homogenization Brain tissue and feces samples were homogenized with a Virsonic 100 ultrasonic homogenizer. Each brain tissue sample was first weighed, and then an appropriate volume of 20:80 methanol:water was added to make a 2 mL/gram sample. Samples were then homogenized on ice, and stored frozen until analysis. Feces samples were homogenized with 20:80 MeOH:water (8 mL/gram of tissue) prior to extraction. Standard Preparation (Plasma, Urine, and Brain) Standards were prepared in rat plasma containing sodium heparin as the anticoagulant, or in blank tissue homogenate. Working solutions were prepared in 50:50 acetonitrile:water. Working solutions were then added to blank matrix to make calibration standards to final concentrations of 1000, 500, 250, 100, 75.0, 50.0, 25.0, and 10 ng/mL. Standards were treated identically to the study samples. Sample Extraction (Plasma, Urine, Feces, and Brain) Plasma, urine, feces, and brain tissue samples were manually extracted via acetonitrile precipitation in a 96-well plate. Urine samples were diluted a minimum of 5-fold into blank rat plasma prior to extraction. Diluted urine samples were quantified against the rat plasma calibration curve. Brain and feces tissue homogenates were quantified against calibration curves prepared in matched blank tissue homogenate.

[1] abbreviates: rat, in vivo, po, animals given the control formulation, rats.
[2] abbreviates: rat, plasma, po, animals given the control formulation, rats.
The mark [3] stands for this setting: rat, plasma, po, test animals (disclosed test formulation), rats.

Consider `CC(C)CN(C[C@@H](O)[C@H](Cc1ccccc1)NC(=O)O[C@H]1CO[C@H]2OCC[C@H]21)S(=O)(=O)c1ccc(N)cc1` [darunavir], for which the concentration at 1 h under setting [1] was roughly 0.185 µg/mL. For the same molecule, the concentration at 2 h under setting [1] was roughly 0.063 µg/mL and the concentration at 2 h (rat, in vivo, po, test animals (disclosed test formulation), rats) is roughly 0.153 µg/mL. Moreover, under “oral, rats, disclosed formulation compared with control formulation”, the “plasma concentration with disclosed compositions versus control formulations” value is on record as “double the plasma concentration”.
Under setting [2], `O=C1Nc2ccc(Cl)cc2[C@@](C#CC2CC2)(C(F)(F)F)O1` [efavirenz] had a concentration at 1 h of roughly 0.139 µg/mL and a concentration at 2 h of roughly 0.117 µg/mL. Besides, under setting [3], the concentration at 1 h is roughly 0.133 µg/mL and the concentration at 2 h is roughly 0.142 µg/mL. The “plasma concentration with disclosed compositions versus control formulations” value (rat, in vivo, po) is given as “higher levels than control formulations”.
